Test results taken from patent US20240315986A1, “PHARMACEUTICAL COMPOSITION FOR TREATMENT OF MULTIPLE SYSTEM ATROPHY” (THE UNIVERSITY OF TOKYO, priority 2021, published 2024).
Where two headings read alike, the source gives them in different places.

Legend:
[1] = intravenous administration to a rat; cited from earlier work
[2] = oral administration to a human; cited from earlier work
[3] = Phase 1 clinical trial: plasma concentration of drug in repeated oral administration for 14 days; format: in vivo, human; details: for Maximum plasma concentration of the MSA-01: 6 hours after repeated oral administration for 14 days (318 hour)
Method: (Measurement of Plasma Concentration of Drug in Repeated Oral Administration for 14 Days)
The MSA-01 was subjected to the oral administration to healthy subjects at doses of 900 mg, 1,200 mg, and 1,500 mg repeatedly for 14 days. […] Maximum plasma concentrations of the MSA-01 detected were 10.24, 9.38, and 15.22 μg/mL in 900 mg, 1,200 mg, and 1,500 mg groups, respectively, in measurement after 6 hours from the repeated oral administration for 14 days (a value at 318 hour in FIG. 1). Published baselines of the plasma concentration of the ubiquinol are 0.87 and […] (% Reduced CoQ10: 98.9 and 85%) (Langsjoen, et al. Comparison study of plasma coenzyme Q10 levels in healthy subjects supplemented with ubiquinol versus ubiquinone. Clin Pharmacol Drug Dev. 2014; 3(1):13-17, Onur et al. Determination of the coenzyme Q10 status in a large Caucasian study population. Biofactors 2015; 41(4):211-21), and it is estimated that MSA-01 in the plasma increased about 20-fold from the baselines in the 1500 mg group in the test.

[4] = system: multiple system atrophy patients; experiment: Phase 2 clinical trial of MSA-01 in multiple system atrophy patients; format: in vivo, human
Method: For a group of 21 patients with COQ2 mutation and a group of 108 patients without COQ2 mutation, 61 patients were administered with the MSA-01 and 68 patients were administered with the placebo for each group. Among 129 patients in total in the patient groups, 99 patients had the MSA-C and 30 patients had the MSA-P. The 129 patients who were confirmed to be eligible during 4-week observation period were randomly assigned to be administered with the MSA-01 or the placebo once per day after breakfast (doses of the MSA-01 or the placebo ascend every 2 weeks to 300, 600, 900, 1,200, and 1,500 mg/day, FIG. 2), and evaluation items according to main evaluation items were measured at Weeks 12, 24, 36, and 48.
Changes (LS means) of UMSARS part 2 scores at Weeks 12, 24, 36, and 48 from the baseline (unified multiple-system atrophy rating scale part 2; Wenning G K, Tison F, Seppi K, et al. Development and validation of the Unified Multiple System Atrophy Rating Scale (UMSARS). Mov Disord [Internet] 2004; 19(12):1391-402) were evaluated. […] Results are shown in FIG. 3A (at Weeks 12, 24, 36, and 48) and FIG. 4 (at Week 48).
Changes (LS mean) of a UMSARS part 1 score (unified multiple-system atrophy rating scale part 1; Wenning G K, Tison F, Seppi K, et al. Development and validation of the Unified Multiple System Atrophy Rating Scale (UMSARS). Mov Disord [Internet] 2004; 19(12):1391-402), the Barthel index (Barthel index: Mahoney F I, Barthel D W. Functional evaluation: The Barthel index. Md State Med J [Internet] 1965; 14:61-5. Available from:http://www.ncbi.nlm.nih.gov/pubmed/14258950) (FIG. 3B), a SARA score (Schmitz-Huebsch T, du Montcel S T, Baliko L, Berciano J, Boesch S, Depondt C, Giunti P, Globas C, Infante J, Kang J S, Kremer B, Mariotti C, Melegh B, Pandolfo M, Rakowicz M, Ribai P, Rola R, Schoels L, Szymanski S, van de Warrenburg B P, Duerr A, Klockgether T, Fancellu R. Scale for the assessment and rating of ataxia:development of a new clinical scale. Neurology. 2006 Jun. 13; 66(11):1717-20. doi: 10.1212/01.wnl.0000219042.60538.92), and a 10-meter walking time (second) at Week 48 from baselines was evaluated (FIG. 4).

[5] = cited from earlier work
[6] = system: familial MSA patient; details: cited from earlier work
[7] = Week 48, compared to the placebo group
[8] = first cited value (Langsjoen et al. 2014)
[9] = second cited value (Onur et al. 2015)

Row | Structure (SMILES) | ubiquinol (reduced) present in plasma after ubiquinone administration [1] [%] | ubiquinol (reduced) present in plasma after ubiquinone administration [2] [%] | Maximum plasma concentration of the MSA-01 ([3]; 900 mg group) [µg/mL] | Maximum plasma concentration of the MSA-01 ([3]; 1,200 mg group) [µg/mL] | increase of MSA-01 in the plasma from the baselines ([3]; 1500 mg group, versus published baselines) | Maximum plasma concentration of the MSA-01 ([3]; 1,500 mg group) [µg/mL] | plasma concentration of the MSA-01 until 24 hours after the administration ([3]; healthy subjects, oral 900, 1,200 and 1,500 mg, quantification limit printed 1 g/mL) | time of repeated administration to reach steady state of plasma concentration ([3]; healthy subjects, repeated oral administration 900-1,500 mg) | Change (LS mean) of 10-meter walking time from baseline [4, 7] | Change (LS mean) of SARA score from baseline [4, 7] | Change (LS mean) of the Barthel index from baseline [4, 7] | difference of LS mean change of UMSARS part 2 score, MSA-01 group versus placebo group ([4]; Week 48, 95% confidence interval −3.24 to −0.24, P=0.023) | Change (LS mean) of UMSARS part 2 score from the baseline ([4]; Week 48, MSA-01 ascending to 1,500 mg/day oral once per day, placebo 7.14) | % Reduced CoQ10 [5, 8] [%] | Published baseline of the plasma concentration of the ubiquinol [5, 8] [µg/mL] | % Reduced CoQ10 [5, 9] [%] | Published baseline of the plasma concentration of the ubiquinol [5, 9] [µg/mL] | clinical evaluation scale ([6]; 600 mg 2 weeks, 840 mg 2 weeks, 1,200 mg 2 weeks, once per day from a gastrostomy tube) | brain oxygen consumption rate ([6]; one familial MSA patient, ubiquinol above conventional dose)
1 | COC1=C(OC)C(=O)C(C/C=C(\C)CC/C=C(\C)CC/C=C(\C)CC/C=C(\C)CC/C=C(\C)CC/C=C(\C)CC/C=C(\C)CC/C=C(\C)CC/C=C(\C)CCC=C(C)C)=C(C)C1=O [ubiquinone] | ≥ 95 | ≥ 95 | – | – | – | – | – | – | – | – | – | – | – | – | – | – | – | – | –
2 | COC1=C(OC)C(O)C(C/C=C(\C)CC/C=C(\C)CC/C=C(\C)CC/C=C(\C)CC/C=C(\C)CC/C=C(\C)CC/C=C(\C)CC/C=C(\C)CC/C=C(\C)CCC=C(C)C)=C(C)C1O (stereo not shown) [MSA-01, 2-[(2E,6E,10E,14E,18E,22E,26E,30E,34E)-3,7,11,15,19,23,27,31,35,39-decamethyltetraconta-2,6,10,14,18,22,26,30,34,38-decaenyl]-5,6-dimethoxy-3-methylcyclohexa-2,5-diene-1,4-diol] | – | – | 10.24 | 9.38 | about 20 fold | 15.22 | extremely low | about 7 days | effects were shown | effects were shown | effects were shown | −1.74 | 5.40 | 98.9 | 0.87 | 85 | 0.66 | no statistically significant changes | improved brain oxygen consumption rate
